How the values were obtained:
Type in all cases: in vivo
[1] = test system: Cyperus serotinus, Rottb.; assay: Preemergence weed control under flooded paddy conditions, CYPSE (Flatsedge); conditions: for herbicidal effect rating, CYPSE: rated three to four weeks after treatment; as to herbicidal effect rating, CYPSE: meaning of each grade not given here
Cyperus iria = assay: Preemergence weed control under flooded paddy conditions, CYPIR (Rice Flatsedge); conditions: flooded paddy; for herbicidal effect rating, CYPIR: rated three to four weeks after treatment; for CYPIR: herbicidal effect rating 0-9, three to four weeks after treatment; as to herbicidal effect rating, CYPIR: meaning of each grade not given here
[2] = test system: Monochoria vaginalis, Presl.; assay: Preemergence weed control under flooded paddy conditions, MOOVA (Monochoria); conditions: flooded paddy; for herbicidal effect rating, MOOVA: rated three to four weeks after treatment; for MOOVA: herbicidal effect rating 0-9, three to four weeks after treatment; as to herbicidal effect rating, MOOVA: meaning of each grade not given here
[3] = test system: Echinochloa oryzoides (Ard.) Fritsch.; assay: Preemergence weed control under flooded paddy conditions, ECHORC (Watergrass (Calif.)); conditions: flooded paddy; for herbicidal effect rating, ECHORC: rated three to four weeks after treatment; for ECHORC: herbicidal effect rating 0-9, three to four weeks after treatment; as to herbicidal effect rating, ECHORC: meaning of each grade not given here
Sagittaria pygmaea, L. = assay: Preemergence weed control under flooded paddy conditions, SAGPY (Arrowhead (Pygmaea)); conditions: flooded paddy; for herbicidal effect rating, SAGPY: rated three to four weeks after treatment; for SAGPY: herbicidal effect rating 0-9, three to four weeks after treatment; as to herbicidal effect rating, SAGPY: meaning of each grade not given here
[4] = Rate 0.0320 kg/ha, preemergence
[5] = Rate 0.0620 kg/ha, preemergence
[6] = Rate 0.1250 kg/ha, preemergence
[7] = Rate 0.2500 kg/ha, preemergence
[8] = Rate 0.0320 kg/ha, preemergence weeds
[9] = Rate 0.0620 kg/ha, preemergence weeds
[10] = Rate 0.1250 kg/ha, preemergence weeds
[11] = Rate 0.2500 kg/ha, preemergence weeds
[12] = 0.0320 kg/ha, preemergence weeds
[13] = 0.0620 kg/ha, preemergence weeds
[14] = 0.1250 kg/ha, preemergence weeds
[15] = 0.2500 kg/ha, preemergence weeds

CC(C)S(=O)(=O)OCc1nsc2ccc(-n3c(=O)cc(C(F)(F)F)n(C)c3=O)cc12 [Example 371, 2,4(1H,3H)-Pyrimidinedione, 3-[3-(hydroxymethyl)-1,2-benzisothiazol-5-yl]-1-methyl-6-(trifluoromethyl)-, 1-methylethanesulfonate (ester)]
herbicidal effect rating, CYPSE [1, 4]: 0.0
herbicidal effect rating, CYPSE [1, 5]: 0.0
herbicidal effect rating, CYPSE [1, 6]: 6.0
herbicidal effect rating, CYPSE [1, 7]: 9.0
herbicidal effect rating, CYPIR (Cyperus iria; [4]): 4.0
herbicidal effect rating, CYPIR (Cyperus iria; [5]): 6.0
herbicidal effect rating, CYPIR (Cyperus iria; [6]): 9.0
herbicidal effect rating, CYPIR (Cyperus iria; [7]): 9.0
herbicidal effect rating, MOOVA [2, 4]: 9.0
herbicidal effect rating, MOOVA [2, 5]: 9.0
herbicidal effect rating, MOOVA [2, 6]: 9.0
herbicidal effect rating, MOOVA [2, 7]: 9.0
herbicidal effect rating, ECHORC [3, 4]: 3.0
herbicidal effect rating, ECHORC [3, 5]: 4.0
herbicidal effect rating, ECHORC [3, 6]: 6.0
herbicidal effect rating, ECHORC [3, 7]: 7.0
herbicidal effect rating, SAGPY (Sagittaria pygmaea, L.; [4]): 3.0
herbicidal effect rating, SAGPY (Sagittaria pygmaea, L.; [5]): 4.0
herbicidal effect rating, SAGPY (Sagittaria pygmaea, L.; [6]): 9.0
herbicidal effect rating, SAGPY (Sagittaria pygmaea, L.; [7]): 9.0

Cn1c(C(F)(F)F)cc(=O)n(-c2ccc3snc(CO[N+](=O)[O-])c3c2)c1=O [Example 310, 2,4(1H,3H)-Pyrimidinedione, 3-[3-(hydroxymethyl)-1,2-benzisothiazol-5-yl]-1-methyl-6-(trifluoromethyl)-, nitrate (ester)]
herbicidal effect rating, CYPSE [1, 8]: 0.0
herbicidal effect rating, CYPSE [1, 9]: 0.0
herbicidal effect rating, CYPSE [1, 10]: 0.0
herbicidal effect rating, CYPSE [1, 11]: 0.0
herbicidal effect rating, CYPIR (Cyperus iria; [8]): 9.0
herbicidal effect rating, CYPIR (Cyperus iria; [9]): 9.0
herbicidal effect rating, CYPIR (Cyperus iria; [10]): 9.0
herbicidal effect rating, CYPIR (Cyperus iria; [11]): 9.0
herbicidal effect rating, MOOVA [2, 8]: 9.0
herbicidal effect rating, MOOVA [2, 9]: 9.0
herbicidal effect rating, MOOVA [2, 10]: 9.0
herbicidal effect rating, MOOVA [2, 11]: 9.0
herbicidal effect rating, ECHORC [3, 8]: 0.0
herbicidal effect rating, ECHORC [3, 9]: 0.0
herbicidal effect rating, ECHORC [3, 10]: 2.0
herbicidal effect rating, ECHORC [3, 11]: 3.0
herbicidal effect rating, SAGPY (Sagittaria pygmaea, L.; [8]): 0.0
herbicidal effect rating, SAGPY (Sagittaria pygmaea, L.; [9]): 0.0
herbicidal effect rating, SAGPY (Sagittaria pygmaea, L.; [10]): 0.0
herbicidal effect rating, SAGPY (Sagittaria pygmaea, L.; [11]): 0.0

Cn1c(C(F)(F)F)cc(=O)n(-c2ccc3snc(C(C#N)=CC4CC4)c3c2)c1=O [Example 458, 1,2-Benzisothiazole-3-acetonitrile, alpha(cyclopropylmethylene)-5-[3,6-dihydro-3-methyl-2,6-dioxo-4-(trifluoromethyl)-1(2H)-pyrimidinyl]-, (E)- and (Z)-]
CYPSE ([1]; 0.0320 kg/ha, preemergence weeds, herbicidal effect rating 0-9, three to four weeks after treatment): 2.0
CYPIR (Cyperus iria; [12]): 0.0
CYPIR (Cyperus iria; [13]): 4.0
CYPIR (Cyperus iria; [14]): 7.0
CYPIR (Cyperus iria; [15]): 7.0
MOOVA [2, 12]: 4.0
MOOVA [2, 13]: 6.0
MOOVA [2, 14]: 9.0
MOOVA [2, 15]: 9.0
ECHORC [3, 12]: 5.0
ECHORC [3, 13]: 6.0
ECHORC [3, 14]: 7.0
ECHORC [3, 15]: 8.0
SAGPY (Sagittaria pygmaea, L.; [12]): 2.0
SAGPY (Sagittaria pygmaea, L.; [13]): 2.0
SAGPY (Sagittaria pygmaea, L.; [14]): 6.0
SAGPY (Sagittaria pygmaea, L.; [15]): 8.0

COc1ccc(COC(=O)C(C)(C)c2nsc3ccc(-n4c(=O)cc(C(F)(F)F)n(C)c4=O)cc23)cc1 [Example 397, 1,2-Benzisothiazole-3-acetic acid, 5-[3,6-dihydro-3-methyl-2,6-dioxo-4-(trifluoromethyl)-1(2H)-pyrimidinyl]-alpha,alpha-dimethyl-, p-methoxybenzyl ester]
herbicidal effect rating, CYPSE [1, 4]: 0.0
herbicidal effect rating, CYPSE [1, 6]: 0.0
herbicidal effect rating, CYPSE [1, 7]: 0.0
herbicidal effect rating, CYPIR (Cyperus iria; [4]): 6.0
herbicidal effect rating, CYPIR (Cyperus iria; [5]): 7.0
herbicidal effect rating, CYPIR (Cyperus iria; [6]): 9.0
herbicidal effect rating, CYPIR (Cyperus iria; [7]): 9.0
herbicidal effect rating, MOOVA [2, 4]: 9.0
herbicidal effect rating, MOOVA [2, 5]: 9.0
herbicidal effect rating, MOOVA [2, 6]: 9.0
herbicidal effect rating, MOOVA [2, 7]: 9.0
herbicidal effect rating, ECHORC [3, 4]: 9.0
herbicidal effect rating, ECHORC [3, 5]: 9.0
herbicidal effect rating, ECHORC [3, 6]: 9.0
herbicidal effect rating, ECHORC [3, 7]: 9.0
herbicidal effect rating, SAGPY (Sagittaria pygmaea, L.; [4]): 4.0
herbicidal effect rating, SAGPY (Sagittaria pygmaea, L.; [5]): 5.0
herbicidal effect rating, SAGPY (Sagittaria pygmaea, L.; [6]): 5.0
herbicidal effect rating, SAGPY (Sagittaria pygmaea, L.; [7]): 5.0
